The target of assay [1] is Serine/threonine-protein kinase MARK1 (Homo sapiens) (UniProt Q9P0L2). Kind of assay: Inhibition of recombinant human GST-tagged full length MARK1 expressed in baculovirus expression system using Ser/Thr 21 as substrate at 10 uM incubated for 60 mins by Z'-lyte assay relative to control.
Assay [2] deals with Serine/threonine-protein kinase 33 (Homo sapiens) (UniProt Q9BYT3). Kind of assay: Inhibition of tracer 236 binding to recombinant human His-tagged full length STK33 expressed in baculovirus expression system at 10 uM incubated for 60 mins by Lanthascreen assay relative to control. On the technique in general: TR-FRET usually uses a lanthanide donor and a delayed reading to cut background.

Assay [3] concerns the target Calcium/calmodulin-dependent protein kinase type 1D (Homo sapiens) (UniProt Q8IU85). As to the kind of experiment: Inhibition of recombinant human His-tagged full length CAMK1delta expressed in baculovirus expression system using Ser/Thr 25 as substrate at 10 uM incubated for 60 mins by Z'-Lyte assay relative to control.
Assay [4] concerns the target Proto-oncogene tyrosine-protein kinase ROS (Homo sapiens) (UniProt P08922). As to the kind of experiment: Inhibition of recombinant human GST-tagged full length ROS1 (1883 to 2347 residues) expressed in baculovirus expression system using Tyr 01 as substrate at 10 uM incubated for 60 mins by Z'-Lyte assay relative to control.
Assay [5] addresses Serine/threonine-protein kinase Sgk1 (Homo sapiens) (UniProt O00141). As to the kind of experiment: Inhibition of recombinant human GST-tagged full length SGK1 (60 to 431 residues) expressed in baculovirus expression system using Ser/Thr 06 as substrate at 10 uM incubated for 60 mins by Z'-Lyte assay relative to control.
Assay [6] deals with Serine/threonine-protein kinase PAK 3 (Homo sapiens) (UniProt O75914). Kind of assay: Inhibition of recombinant human His-tagged full length PAK3 expressed in baculovirus expression system using Ser/Thr 20 as substrate at 10 uM incubated for 60 mins by Z'-lyte assay relative to control.
Assay [7] concerns the target Tyrosine-protein kinase Lyn (Homo sapiens) (UniProt P07948). Kind of assay: Inhibition of LYN (unknown origin) by selectscreen kinase assay. The settings on record: dose 10.0 µM, time 60.0 min.
Assay [8] has as its target Rho-associated protein kinase 1 (Homo sapiens) (UniProt Q13464). Kind of assay: Inhibition of recombinant human GST-tagged ROCK1 (1 to 535 residues) expressed in baculovirus expression system using Ser/Thr 07 as substrate at 10 uM incubated for 60 mins by Z'-Lyte assay relative to control.
The target of assay [9] is Glycogen synthase kinase-3 beta (Homo sapiens) (UniProt P49841). Kind of assay: Inhibition of recombinant human N-terminal GST-tagged full length GSK3beta expressed in baculovirus expression system using Ser/Thr 09 as substrate at 10 uM incubated for 60 mins by Z'-Lyte assay relative to control.
Assay [10] concerns the target Homeodomain-interacting protein kinase 2 (Homo sapiens) (UniProt Q9H2X6). As to the kind of experiment: Inhibition of recombinant human N-terminal GST-tagged HIPK2 expressed in baculovirus expression system using Ser/Thr 09 as substrate at 10 uM incubated for 60 mins by Z'-Lyte assay relative to control.
Assay [11] has as its target Glycogen synthase kinase-3 alpha (Homo sapiens) (UniProt P49840). Kind of assay: Inhibition of recombinant human GST-tagged full length GSK3alpha expressed in baculovirus expression system using Ser/Thr 09 as substrate at 10 uM incubated for 60 mins by Z'-Lyte assay relative to control.
In assay [12] the target is Tyrosine-protein kinase Lck (Homo sapiens) (UniProt P06239). As to the kind of experiment: Inhibition of recombinant human His-tagged full length LCK expressed in baculovirus expression system using Tyr 02 as substrate at 10 uM incubated for 60 mins by Z'-lyte assay relative to control.
For assay [13], the target named is Tyrosine-protein kinase Blk (Homo sapiens) (UniProt P51451). Kind of assay: Inhibition of recombinant human His-tagged full length BLK expressed in baculovirus expression system using Tyr 01 as substrate at 10 uM incubated for 60 mins by Z'-Lyte assay relative to control.
Assay [14] addresses Serine/threonine-protein kinase Sgk2 (Homo sapiens) (UniProt Q9HBY8). Kind of assay: Inhibition of recombinant human GST-tagged full length SGK2 (54 to 427 residues) expressed in baculovirus expression system using Ser/Thr 06 as substrate at 10 uM incubated for 60 mins by Z'-Lyte assay relative to control.
Assay [15] addresses Ephrin type-A receptor 8 (Homo sapiens) (UniProt P29322). Kind of assay: Inhibition of recombinant human GST-tagged EPHA8 (565 to 1005 residues) expressed in baculovirus expression system using Tyr 02 as substrate at 10 uM incubated for 60 mins by Z'-Lyte assay relative to control.
In assay [16] the target is Mitogen-activated protein kinase kinase kinase kinase 5 (Homo sapiens) (UniProt Q9Y4K4). As to the kind of experiment: Inhibition of recombinant human GST-tagged full length KHS1 expressed in baculovirus expression system using Ser/Thr 07 as substrate at 10 uM incubated for 60 mins by Z'-lyte assay relative to control.
For assay [17], the target named is Tyrosine-protein kinase JAK3 (Homo sapiens) (UniProt P52333). Kind of assay: Inhibition of recombinant human GST-tagged JAK3 (781 to 1124 residues) expressed in baculovirus expression system using Tyr 06 as substrate at 10 uM incubated for 60 mins by Z'-lyte assay relative to control.
The target in assay [18] is Serine/threonine-protein kinase PLK3 (Homo sapiens) (UniProt Q9H4B4). As to the kind of experiment: Inhibition of recombinant human GST-tagged PLK3 (58 to 340 residues) expressed in baculovirus expression system using Ser/Thr 16 as substrate at 10 uM incubated for 60 mins by Z'-lyte assay relative to control.
For assay [19], the target named is Mitogen-activated protein kinase kinase kinase 9 (Homo sapiens) (UniProt P80192). As to the kind of experiment: Inhibition of recombinant human GST-tagged MLK1 (1 to 500 residues) expressed in baculovirus expression system using Ser/Thr 07 as substrate at 10 uM incubated for 60 mins by Z'-lyte assay relative to control.
Assay [20] concerns the target Ephrin type-B receptor 3 (Homo sapiens) (UniProt P54753). Kind of assay: Inhibition of recombinant human GST-tagged EPHB3 (623 to 907 residues) expressed in baculovirus expression system using Tyr 02 as substrate at 10 uM incubated for 60 mins by Z'-Lyte assay relative to control.
For assay [21], the target named is Angiopoietin-1 receptor (Homo sapiens) (UniProt Q02763). Kind of assay: Inhibition of recombinant human GST-tagged TIE2 (817 to 1101 residues) expressed in baculovirus expression system using Ser/Thr 05 as substrate at 10 uM incubated for 60 mins by Z'-Lyte assay relative to control.
Assay [22] concerns the target Mitogen-activated protein kinase 1 (Homo sapiens) (UniProt P28482). As to the kind of experiment: Inhibition of recombinant human GST-tagged full length ERK2 expressed in baculovirus expression system using Ser/Thr 03 as substrate at 10 uM incubated for 60 mins by Z'-Lyte assay relative to control.
In assay [23] the target is RAC-beta serine/threonine-protein kinase (Homo sapiens) (UniProt P31751). Kind of assay: Inhibition of recombinant human His-tagged full length AKT2 expressed in baculovirus expression system using Ser/Thr 06 as substrate at 10 uM incubated for 60 mins by Z'-Lyte assay relative to control.
For assay [24], the target named is cGMP-dependent protein kinase 1 (Homo sapiens) (UniProt Q13976). Kind of assay: Inhibition of recombinant human GST-tagged full length […] expressed in baculovirus expression system using Ser/Thr 01 as substrate at 10 uM incubated for 60 mins by Z'-lyte assay relative to control.
cGMP-dependent protein kinase 1 (Homo sapiens), sequence (Q13976 whole entry): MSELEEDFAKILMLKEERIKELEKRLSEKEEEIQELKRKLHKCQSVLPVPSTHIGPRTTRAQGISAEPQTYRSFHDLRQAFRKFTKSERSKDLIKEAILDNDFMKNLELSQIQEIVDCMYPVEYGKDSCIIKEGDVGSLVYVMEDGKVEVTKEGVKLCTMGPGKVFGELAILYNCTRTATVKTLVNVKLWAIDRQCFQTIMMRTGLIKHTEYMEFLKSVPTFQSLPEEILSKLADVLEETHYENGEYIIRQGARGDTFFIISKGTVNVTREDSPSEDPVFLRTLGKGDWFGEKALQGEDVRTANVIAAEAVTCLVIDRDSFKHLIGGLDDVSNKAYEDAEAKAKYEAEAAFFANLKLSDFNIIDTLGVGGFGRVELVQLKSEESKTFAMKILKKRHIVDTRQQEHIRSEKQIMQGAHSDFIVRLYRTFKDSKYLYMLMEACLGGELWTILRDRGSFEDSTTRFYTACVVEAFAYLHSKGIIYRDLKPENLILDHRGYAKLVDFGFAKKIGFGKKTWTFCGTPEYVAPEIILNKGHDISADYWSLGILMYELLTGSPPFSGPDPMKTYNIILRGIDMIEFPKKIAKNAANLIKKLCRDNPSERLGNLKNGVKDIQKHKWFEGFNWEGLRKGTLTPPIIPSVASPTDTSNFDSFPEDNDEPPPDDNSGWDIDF

Tyrosine-protein kinase Blk (Homo sapiens), sequence (P51451 2-505 limits assumed): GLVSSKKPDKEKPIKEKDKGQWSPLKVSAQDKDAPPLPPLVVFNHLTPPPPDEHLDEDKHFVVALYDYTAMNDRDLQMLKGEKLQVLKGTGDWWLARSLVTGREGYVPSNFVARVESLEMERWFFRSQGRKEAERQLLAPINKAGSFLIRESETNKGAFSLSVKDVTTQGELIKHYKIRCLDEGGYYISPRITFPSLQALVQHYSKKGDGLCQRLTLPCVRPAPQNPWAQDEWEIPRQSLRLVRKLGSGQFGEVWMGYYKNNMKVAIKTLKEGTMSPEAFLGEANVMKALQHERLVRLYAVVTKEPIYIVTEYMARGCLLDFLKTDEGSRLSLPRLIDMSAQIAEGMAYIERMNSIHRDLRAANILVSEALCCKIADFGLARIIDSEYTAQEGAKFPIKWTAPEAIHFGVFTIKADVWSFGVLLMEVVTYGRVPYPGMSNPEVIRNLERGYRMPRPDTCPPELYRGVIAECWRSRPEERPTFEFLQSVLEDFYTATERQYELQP
Rho-associated protein kinase 1 (Homo sapiens), sequence (Q13464 2-1354 limits assumed): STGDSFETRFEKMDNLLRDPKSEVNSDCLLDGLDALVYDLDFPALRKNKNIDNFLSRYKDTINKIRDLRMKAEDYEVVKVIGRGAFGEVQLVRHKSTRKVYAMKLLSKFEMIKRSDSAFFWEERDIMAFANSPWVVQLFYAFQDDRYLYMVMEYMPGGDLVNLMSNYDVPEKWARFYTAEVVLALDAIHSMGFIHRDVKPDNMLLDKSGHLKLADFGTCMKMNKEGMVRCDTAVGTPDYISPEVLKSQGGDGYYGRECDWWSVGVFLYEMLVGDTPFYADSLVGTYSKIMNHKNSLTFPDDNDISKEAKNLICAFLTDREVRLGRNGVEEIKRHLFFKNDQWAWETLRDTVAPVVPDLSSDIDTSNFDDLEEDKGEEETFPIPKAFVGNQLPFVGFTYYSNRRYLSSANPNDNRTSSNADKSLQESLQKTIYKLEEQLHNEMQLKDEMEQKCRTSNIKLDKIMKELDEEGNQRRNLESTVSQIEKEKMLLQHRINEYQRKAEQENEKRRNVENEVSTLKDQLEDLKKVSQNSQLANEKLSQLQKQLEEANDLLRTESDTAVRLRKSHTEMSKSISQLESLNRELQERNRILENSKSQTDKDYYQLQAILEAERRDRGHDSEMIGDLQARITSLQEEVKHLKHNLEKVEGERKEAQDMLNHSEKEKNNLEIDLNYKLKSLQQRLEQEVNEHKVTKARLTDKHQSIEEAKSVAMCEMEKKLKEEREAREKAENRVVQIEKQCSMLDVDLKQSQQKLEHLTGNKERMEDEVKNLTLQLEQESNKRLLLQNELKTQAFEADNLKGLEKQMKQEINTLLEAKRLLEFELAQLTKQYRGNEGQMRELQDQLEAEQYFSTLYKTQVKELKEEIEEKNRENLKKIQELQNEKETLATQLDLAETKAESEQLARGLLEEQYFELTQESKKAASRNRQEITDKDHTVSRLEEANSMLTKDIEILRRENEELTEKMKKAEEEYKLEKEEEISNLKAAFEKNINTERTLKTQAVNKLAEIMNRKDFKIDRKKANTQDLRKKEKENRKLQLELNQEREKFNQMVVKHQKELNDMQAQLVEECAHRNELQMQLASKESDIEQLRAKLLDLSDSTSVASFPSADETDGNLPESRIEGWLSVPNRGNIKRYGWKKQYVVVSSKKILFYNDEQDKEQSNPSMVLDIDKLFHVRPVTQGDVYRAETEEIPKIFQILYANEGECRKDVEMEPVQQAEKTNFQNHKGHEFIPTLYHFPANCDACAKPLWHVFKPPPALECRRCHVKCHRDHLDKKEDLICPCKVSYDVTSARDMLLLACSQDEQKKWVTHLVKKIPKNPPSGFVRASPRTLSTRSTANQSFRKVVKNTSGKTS
Glycogen synthase kinase-3 alpha (Homo sapiens), sequence (P49840 whole entry, looked up): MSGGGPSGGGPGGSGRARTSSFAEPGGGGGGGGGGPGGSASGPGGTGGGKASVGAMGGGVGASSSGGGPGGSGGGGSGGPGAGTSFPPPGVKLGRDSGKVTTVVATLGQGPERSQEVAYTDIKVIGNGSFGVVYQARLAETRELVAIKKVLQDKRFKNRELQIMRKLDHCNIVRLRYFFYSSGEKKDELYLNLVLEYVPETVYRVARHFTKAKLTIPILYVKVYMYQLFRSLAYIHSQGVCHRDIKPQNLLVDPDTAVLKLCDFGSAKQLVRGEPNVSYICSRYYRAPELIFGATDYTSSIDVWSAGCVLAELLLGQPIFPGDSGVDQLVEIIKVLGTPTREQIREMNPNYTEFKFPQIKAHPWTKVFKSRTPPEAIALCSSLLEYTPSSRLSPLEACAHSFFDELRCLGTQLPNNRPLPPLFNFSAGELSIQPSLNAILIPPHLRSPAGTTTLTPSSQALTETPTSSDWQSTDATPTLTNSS
Mitogen-activated protein kinase kinase kinase kinase 5 (Homo sapiens), sequence (Q9Y4K4 whole entry, looked up, the tested form may be a part): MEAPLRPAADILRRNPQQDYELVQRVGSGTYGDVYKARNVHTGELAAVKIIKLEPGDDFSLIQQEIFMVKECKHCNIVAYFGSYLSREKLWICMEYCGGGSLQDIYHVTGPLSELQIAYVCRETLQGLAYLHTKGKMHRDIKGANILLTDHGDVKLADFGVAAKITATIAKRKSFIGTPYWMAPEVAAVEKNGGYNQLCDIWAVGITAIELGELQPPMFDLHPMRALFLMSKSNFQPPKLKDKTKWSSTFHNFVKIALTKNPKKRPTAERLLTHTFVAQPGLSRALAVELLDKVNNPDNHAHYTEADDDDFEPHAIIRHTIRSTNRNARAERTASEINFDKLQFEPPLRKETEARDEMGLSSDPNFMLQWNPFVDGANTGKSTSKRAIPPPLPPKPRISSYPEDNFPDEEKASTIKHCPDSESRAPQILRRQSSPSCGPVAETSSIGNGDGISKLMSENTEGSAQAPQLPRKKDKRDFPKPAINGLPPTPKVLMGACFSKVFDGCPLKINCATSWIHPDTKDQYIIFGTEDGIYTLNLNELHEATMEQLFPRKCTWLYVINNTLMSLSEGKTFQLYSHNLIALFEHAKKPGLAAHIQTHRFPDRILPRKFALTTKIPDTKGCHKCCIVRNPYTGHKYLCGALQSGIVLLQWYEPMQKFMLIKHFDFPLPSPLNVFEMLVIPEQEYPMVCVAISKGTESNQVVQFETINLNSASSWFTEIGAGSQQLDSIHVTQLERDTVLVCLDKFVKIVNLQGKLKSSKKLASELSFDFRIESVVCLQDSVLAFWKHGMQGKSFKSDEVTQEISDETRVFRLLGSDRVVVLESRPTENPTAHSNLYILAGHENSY
Tyrosine-protein kinase Lyn (Homo sapiens), sequence (P07948 whole entry, looked up, the tested form may be a part): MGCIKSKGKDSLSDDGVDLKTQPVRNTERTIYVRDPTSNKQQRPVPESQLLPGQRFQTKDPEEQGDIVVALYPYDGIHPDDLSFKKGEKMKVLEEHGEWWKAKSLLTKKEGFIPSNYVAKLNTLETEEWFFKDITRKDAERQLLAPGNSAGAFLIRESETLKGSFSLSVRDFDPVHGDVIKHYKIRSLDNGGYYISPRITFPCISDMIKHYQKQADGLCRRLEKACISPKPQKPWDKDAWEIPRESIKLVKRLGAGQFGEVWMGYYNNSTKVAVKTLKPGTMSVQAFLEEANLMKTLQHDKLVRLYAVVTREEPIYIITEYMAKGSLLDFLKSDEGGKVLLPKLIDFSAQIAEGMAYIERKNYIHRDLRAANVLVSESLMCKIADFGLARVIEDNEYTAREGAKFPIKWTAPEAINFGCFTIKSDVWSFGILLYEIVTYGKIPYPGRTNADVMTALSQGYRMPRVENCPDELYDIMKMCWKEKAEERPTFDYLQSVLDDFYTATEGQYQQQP
Mitogen-activated protein kinase 1 (Homo sapiens), sequence (P28482 whole entry): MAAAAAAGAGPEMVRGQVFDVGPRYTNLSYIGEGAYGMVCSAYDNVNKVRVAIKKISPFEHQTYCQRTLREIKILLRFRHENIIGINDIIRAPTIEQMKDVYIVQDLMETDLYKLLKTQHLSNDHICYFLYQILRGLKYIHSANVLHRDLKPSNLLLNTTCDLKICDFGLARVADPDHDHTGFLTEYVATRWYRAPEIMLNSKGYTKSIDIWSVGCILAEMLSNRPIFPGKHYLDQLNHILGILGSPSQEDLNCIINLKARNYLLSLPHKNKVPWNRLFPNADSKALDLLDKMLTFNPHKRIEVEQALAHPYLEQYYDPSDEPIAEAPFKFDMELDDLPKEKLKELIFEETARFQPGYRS

The inhibition is the drop in the measured response relative to a control, in per cent. Take `CN1C(=O)[C@@H](NC(=O)c2n[nH]c3ncc(C(F)(F)C(F)(F)F)cc23)COc2ccccc21`: the inhibition was -5.5% in [1]; 1% in [2]; 5% in assay [3]; -4% in assay [4]; 3% in [5]; 8% in assay [6]. Further, the inhibition in assay [7] is 8%; in assay [8], -8.5%; in assay [9] it was 14.5%; in [10] it was 7%; in assay [11] it was 9%; in [12], -0.5%. Besides, the inhibition in [13] was 2%; in [14], 4%; in assay [15] it was 0%; in [16] it was -0.5%; in [17], 1.5%; in [18], 7%. In addition, the inhibition is 9% in assay [19]; 1% in assay [20]; 8.5% in assay [21]; 7% in assay [22]; 7.5% in assay [23]; 0.5% in assay [24].

Source of the values: ChEMBL document CHEMBL4665648, “Potent and selective inhibitors of receptor-interacting protein kinase 1 that lack an aromatic back pocket group” (Bioorg Med Chem Lett, 2019).
